Laboratory results from US20260297080A1, “BICYCLIC COMPOUNDS AS CDK INHIBITORS” (BeOne Medicines I GmbH, priority 2022, published 2026).

Legend:
CDK1/Cyclin B1 = CDK1/Cyclin B1 (Homo sapiens, UniProt P06493); assay: CDK1/Cyclin B1 Biochemical Assay (TR-FRET), 0.015 mM ATP; settings: 0.15 μM Rb (Ser780)-biotin substrate, pH7.0, 60 min preincubation, 120 min reaction, room temperature
Procedure, shortened: (§1)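 TR-FRET readout: 665/620 nm ratio from Eu-cryptate anti-pRb(Ser780) antibody plus streptavidin-XL665, converted to % inhibition and fitted (4-parameter logistic) for IC50. Reactions used 0.15 μM biotinylated Rb (Ser780) substrate, compound 0–10 μM, 60 min enzyme–compound preincubation, then 120 min reaction at room temperature.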

CDK2/Cyclin E1 = CDK2/Cyclin E1 (Homo sapiens, UniProt P24941); assay: CDK2/Cyclin E1 Biochemical Assay (TR-FRET), 0.060 mM ATP; settings: 0.15 μM Rb (Ser780)-biotin substrate, pH7.0, 60 min preincubation, 120 min reaction, room temperature
Procedure, shortened: as §1

CDK1/Cyclin B1, sequence (P06493 whole entry): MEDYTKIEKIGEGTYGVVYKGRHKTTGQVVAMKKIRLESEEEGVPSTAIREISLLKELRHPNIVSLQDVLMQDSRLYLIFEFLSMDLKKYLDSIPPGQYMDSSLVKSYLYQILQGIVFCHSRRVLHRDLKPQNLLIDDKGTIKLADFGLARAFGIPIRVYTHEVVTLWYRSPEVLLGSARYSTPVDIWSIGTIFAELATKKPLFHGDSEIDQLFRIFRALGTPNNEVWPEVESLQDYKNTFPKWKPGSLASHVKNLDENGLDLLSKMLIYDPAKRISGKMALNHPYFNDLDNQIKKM
CDK1/Cyclin B1, sequence (P14635 whole entry partner): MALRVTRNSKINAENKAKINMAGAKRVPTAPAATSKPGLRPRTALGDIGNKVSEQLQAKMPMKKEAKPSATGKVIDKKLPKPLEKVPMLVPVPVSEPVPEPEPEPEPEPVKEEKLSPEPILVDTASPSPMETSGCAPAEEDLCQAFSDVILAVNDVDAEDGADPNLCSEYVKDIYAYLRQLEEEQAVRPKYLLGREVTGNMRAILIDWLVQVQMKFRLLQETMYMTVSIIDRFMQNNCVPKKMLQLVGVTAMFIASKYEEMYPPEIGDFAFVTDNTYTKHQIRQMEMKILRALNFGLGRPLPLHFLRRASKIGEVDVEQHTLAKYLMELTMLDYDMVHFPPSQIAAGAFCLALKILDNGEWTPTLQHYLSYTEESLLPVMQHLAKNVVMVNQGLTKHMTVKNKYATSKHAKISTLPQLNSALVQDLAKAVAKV

Row | Compound | IC50 (CDK1/Cyclin B1) [nM] | IC50 (CDK2/Cyclin E1) [nM]
1 | CC1(NC(=O)O[C@H]2CC[C@@H](c3cc(Nc4ccc5c(c4F)S(=O)(=O)NC5)n[nH]3)C2)CC1 (relative stereo) [Example 187, cis-3-(3-((7-fluoro-1,1-dioxido-2,3-dihydrobenzo[d]isothiazol-6-yl)amino)-1H-pyrazol-5-yl)cyclopentyl(1-methylcyclopropyl)carbamate] | 14 | 0.7
2 | Cc1cc2c(cc1Nc1cc([C@@H]3CC[C@H](OC(=O)NC(C)C)C3)[nH]n1)CNS2(=O)=O (relative stereo) [Example 25, cis-3-(3-((6-methyl-1,1-dioxido-2,3-dihydrobenzo[d]isothiazol-5-yl)amino)-1H-pyrazol-5-yl)cyclopentyl isopropylcarbamate] | 271 | 11
3 | CC(C)NC(=O)O[C@H]1CC[C@@H](c2cc(Nc3cc(F)c4c(c3)NS(=O)(=O)C4)n[nH]2)C1 (relative stereo) [Example 311, cis-3-(3-((4-fluoro-2,2-dioxido-1,3-dihydrobenzo[c]isothiazol-6-yl)amino)-1H-pyrazol-5-yl)cyclopentyl isopropylcarbamate] | 158 | 6
4 | CC1(NC(=O)O[C@H]2CC[C@@H](c3cc(Nc4ccc5c(c4F)CN(C4CC4)S5(=O)=O)n[nH]3)C2)CCOC1 (relative stereo) [Example 358, cis-3-(3-((2-cyclopropyl-4-fluoro-1,1-dioxido-2,3-dihydrobenzo[d]isothiazol-5-yl)amino)-1H-pyrazol-5-yl)cyclopentyl(3-methyltetrahydrofuran-3-yl)carbamate] | 221 | 2.6
5 | CC[C@H](C)NC(=O)O[C@H]1CC[C@@H](c2cc(Nc3ccc4c(c3Cl)CNS4(=O)=O)n[nH]2)C1 (relative stereo) [Example 41, cis-3-(3-((4-chloro-1,1-dioxido-2,3-dihydrobenzo[d]isothiazol-5-yl)amino)-1H-pyrazol-5-yl)cyclopentyl((S)-sec-butyl)carbamate] | 512 | 2.3
6 | CC(NC(=O)O[C@H]1CC[C@@H](c2cc(Nc3ccc4c(c3)CS(=O)(=O)N4)n[nH]2)C1)C1COC1 (relative stereo) [Example 343, cis-3-(3-((2,2-dioxido-1,3-dihydrobenzo[c]isothiazol-5-yl)amino)-1H-pyrazol-5-yl)cyclopentyl(1-(oxetan-3-yl)ethyl)carbamate] | 43 | 3.2
7 | CC(C)NC(=O)O[C@H]1CC[C@@H](c2cc(Nc3ccc4c(c3)CS(=O)(=O)N4CC(F)(F)F)n[nH]2)C1 (relative stereo) [Example 205, cis-3-(3-((2,2-dioxido-1-(2,2,2-trifluoroethyl)-1,3-dihydrobenzo[c]isothiazol-5-yl)amino)-1H-pyrazol-5-yl)cyclopentyl isopropylcarbamate] | 41 | 7.5
8 | CN1c2ccc(Nc3cc([C@@H]4CC[C@H](OC(=O)NC5(C)CCOC5)C4)[nH]n3)c(F)c2CS1(=O)=O (single isomer, unassigned) [Example 349a, cis-3-(3-((4-fluoro-1-methyl-2,2-dioxido-1,3-dihydrobenzo[c]isothiazol-5-yl)amino)-1H-pyrazol-5-yl)cyclopentyl(3-methyltetrahydrofuran-3-yl)carbamate] | 131 | 1.8
9 | CCCNC(=O)O[C@H]1CC[C@@H](c2cc(Nc3ccc4c(c3F)CS(=O)(=O)N4CCO)n[nH]2)C1 (single isomer, unassigned) [Example 272a, cis-3-(3-((4-fluoro-1-(2-hydroxyethyl)-2,2-dioxido-1,3-dihydrobenzo[c]isothiazol-5-yl)amino)-1H-pyrazol-5-yl)cyclopentyl propylcarbamate] | 146 | 15.5
10 | CC(C)NC(=O)O[C@H]1CC[C@@H](c2cc(Nc3ccc4c(c3)C(C)S(=O)(=O)N4)n[nH]2)C1 (single isomer, unassigned) [Example 384c, cis-3-(3-((3-methyl-2,2-dioxido-1,3-dihydrobenzo[c]isothiazol-5-yl)amino)-1H-pyrazol-5-yl)cyclopentyl isopropylcarbamate] | 14 | 1.2
11 | CC(C)NC(=O)O[C@H]1CC[C@@H](c2cc(Nc3ccc4c(c3F)CN(CC3CCC3)S4(=O)=O)n[nH]2)C1 (relative stereo) [Example 96, cis-3-(3-((2-(cyclobutylmethyl)-4-fluoro-1,1-dioxido-2,3-dihydrobenzo[d]isothiazol-5-yl)amino)-1H-pyrazol-5-yl)cyclopentyl isopropylcarbamate] | 2020 | 36
12 | CC(C)NC(=O)O[C@H]1CC[C@@H](c2cc(Nc3ccc4c(c3F)CN(CC3CCCCC3)S4(=O)=O)n[nH]2)C1 (relative stereo) [Example 108, cis-3-(3-((2-(cyclohexylmethyl)-4-fluoro-1,1-dioxido-2,3-dihydrobenzo[d]isothiazol-5-yl)amino)-1H-pyrazol-5-yl)cyclopentyl isopropylcarbamate] | > 10000 | 37
13 | O=C(NC1(CO)CC1)O[C@H]1CC[C@@H](c2cc(Nc3ccc4c(c3F)CNS4(=O)=O)n[nH]2)C1 (relative stereo) [Example 333, cis-3-(3-((4-fluoro-1,1-dioxido-2,3-dihydrobenzo[d]isothiazol-5-yl)amino)-1H-pyrazol-5-yl)cyclopentyl(1-(hydroxymethyl)cyclopropyl)carbamate] | 402 | 10
14 | O=C(NCCC(F)(F)F)O[C@H]1CC[C@@H](c2cc(Nc3ccc4c(c3F)CNS4(=O)=O)n[nH]2)C1 (single isomer, unassigned) [Example 154a, cis-3-(3-((4-fluoro-1,1-dioxido-2,3-dihydrobenzo[d]isothiazol-5-yl)amino)-1H-pyrazol-5-yl)cyclopentyl(3,3,3-trifluoropropyl)carbamate] | 187 | 2.3
15 | CC(C)NC(=O)O[C@H]1CC[C@@H](c2cc(Nc3ccc4c(c3F)CN(C3CCN(C)CC3)S4(=O)=O)n[nH]2)C1 (relative stereo) [Example 62, cis-3-(3-((4-fluoro-2-(1-methylpiperidin-4-yl)-1,1-dioxido-2,3-dihydrobenzo[d]isothiazol-5-yl)amino)-1H-pyrazol-5-yl)cyclopentyl isopropylcarbamate] | 758 | 9.5
16 | CC(C)(C)NC(=O)O[C@H]1CC[C@@H](c2cc(Nc3ccc4c(c3F)CNS4(=O)=O)n[nH]2)C1 (relative stereo) [Example 159, cis-3-(3-((4-fluoro-1,1-dioxido-2,3-dihydrobenzo[d]isothiazol-5-yl)amino)-1H-pyrazol-5-yl)cyclopentyl tert-butylcarbamate] | 30 | 1
17 | CC(C)NC(=O)O[C@H]1CC[C@@H](c2cc(Nc3ccc4c(c3F)CS(=O)(=O)N4C)n[nH]2)C1 (single isomer, unassigned) [Example 255a, cis-3-(3-((4-fluoro-1-methyl-2,2-dioxido-1,3-dihydrobenzo[c]isothiazol-5-yl)amino)-1H-pyrazol-5-yl)cyclopentyl isopropylcarbamate] | 133 | 2.9
18 | CC1(NC(=O)O[C@H]2CC[C@@H](c3cc(Nc4ccc5c(c4)CS(=O)(=O)N5)n[nH]3)C2)CCOCC1 (relative stereo) [Example 398, cis-3-(3-((2,2-dioxido-1,3-dihydrobenzo[c]isothiazol-5-yl)amino)-1H-pyrazol-5-yl)cyclopentyl(4-methyltetrahydro-2H-pyran-4-yl)carbamate] | 53 | 4.9
19 | CC1NS(=O)(=O)c2ccc(Nc3cc([C@@H]4CC[C@H](OC(=O)NC5(C)CC5)C4)[nH]n3)c(F)c21 (single isomer, unassigned) [Example 52d, cis-3-(3-((4-fluoro-3-methyl-1,1-dioxido-2,3-dihydrobenzo[d]isothiazol-5-yl)amino)-1H-pyrazol-5-yl)cyclopentyl(1-methylcyclopropyl)carbamate] | 56 | 1
20 | CC[C@H](C)NC(=O)O[C@H]1CC[C@@H](c2cc(Nc3ccc4c(c3F)CN(CCO)S4(=O)=O)n[nH]2)C1 (relative stereo) [Example 127, cis-3-(3-((4-fluoro-2-(2-hydroxyethyl)-1,1-dioxido-2,3-dihydrobenzo[d]isothiazol-5-yl)amino)-1H-pyrazol-5-yl)cyclopentyl((S)-sec-butyl)carbamate] | 176 | 1.9
21 | CC(C)NC(=O)O[C@H]1CC[C@@H](c2cc(Nc3cc4c(cc3F)CNS4(=O)=O)n[nH]2)C1 (single isomer, unassigned) [Example 1a, cis-3-(3-((5-fluoro-1,1-dioxido-2,3-dihydrobenzo[d]isothiazol-6-yl)amino)-1H-pyrazol-5-yl)cyclopentyl isopropylcarbamate] | 860 | 22
22 | O=C(NC1CC2(CC2)C1)O[C@H]1CC[C@@H](c2cc(Nc3ccc4c(c3F)CNS4(=O)=O)n[nH]2)C1 (relative stereo) [Example 160, cis-3-(3-((4-fluoro-1,1-dioxido-2,3-dihydrobenzo[d]isothiazol-5-yl)amino)-1H-pyrazol-5-yl)cyclopentyl spiro[2.3]hexan-5-ylcarbamate] | 579 | 105
23 | CC(C)NC(=O)O[C@H]1CC[C@@H](c2cc(Nc3ccc4c(c3F)CN(CC(O)CO)S4(=O)=O)n[nH]2)C1 (relative stereo) [Example 71, cis-3-(3-((2-(2,3-dihydroxypropyl)-4-fluoro-1,1-dioxido-2,3-dihydrobenzo[d]isothiazol-5-yl)amino)-1H-pyrazol-5-yl)cyclopentyl isopropylcarbamate] | 440 | 5.2
